Residues, ends and D or L forms follow the SMILES beside them. *: point of attachment. Cbz = O=C(OCc1ccccc1)*; CH2F = FC*

The values below come from patent US11779592B2, “Inhibition of NGLY1 for the treatment of cancer” (University of North Texas Health Science Center, priority 2017, dated 2023).

Data set [1] deals with SK-MEL-2 cells. As to the kind of experiment: Cell viability test (MTT) in SK-MEL-2 cells. Type of data set: cell-based, human. The protocol: (§1) Despite the frequent failure of chemotherapy in patients with melanoma, chemotherapy remains a frontline approach for treatment, especially in many patients who cannot afford immunotherapy or targeted therapy. […] Identifying novel approaches to enhance the efficacy of chemotherapy and targeted therapy agents in melanoma will greatly benefit many cancer patients. […] The IC50 of each drug treatment in each cell clone was calculated using CalcuSyn 2.0.
(§2) The dose effect of dox-induced expression of NGLY1 shRNA in each cell clone was also determined. The IC50 of each drug treatment in each cell clone was calculated using CalcuSyn 2.0. To determine the interaction between NGLY1 knockdown and each anticancer agent, cells were exposed to four-dose combinations of dox and an anticancer agent at a fixed dose ratio. The combination index (CI) value was calculated using CalcuSyn 2.0. CI values of less than 1 are considered a synergistic interaction. […]
(§3) Cells were seeded into 96-well plates (2,500-5,000 cells/well, depending on cell types), incubated overnight, and treated as indicated. […] Reduced MTT was solubilized in DMSO for determination of absorbance at 570 nm. Absorbance of reduced MTS was directly measured in the reaction medium at 490 nm. The relative cell viability in each treatment condition was calculated based on absorbance values.

The target in data set [2] is T1, human NGLY1 (Homo sapiens, UniProt Q96IV0).
T1 construct: host or cells: HEK293T
T1 sequence (Q96IV0 1-654): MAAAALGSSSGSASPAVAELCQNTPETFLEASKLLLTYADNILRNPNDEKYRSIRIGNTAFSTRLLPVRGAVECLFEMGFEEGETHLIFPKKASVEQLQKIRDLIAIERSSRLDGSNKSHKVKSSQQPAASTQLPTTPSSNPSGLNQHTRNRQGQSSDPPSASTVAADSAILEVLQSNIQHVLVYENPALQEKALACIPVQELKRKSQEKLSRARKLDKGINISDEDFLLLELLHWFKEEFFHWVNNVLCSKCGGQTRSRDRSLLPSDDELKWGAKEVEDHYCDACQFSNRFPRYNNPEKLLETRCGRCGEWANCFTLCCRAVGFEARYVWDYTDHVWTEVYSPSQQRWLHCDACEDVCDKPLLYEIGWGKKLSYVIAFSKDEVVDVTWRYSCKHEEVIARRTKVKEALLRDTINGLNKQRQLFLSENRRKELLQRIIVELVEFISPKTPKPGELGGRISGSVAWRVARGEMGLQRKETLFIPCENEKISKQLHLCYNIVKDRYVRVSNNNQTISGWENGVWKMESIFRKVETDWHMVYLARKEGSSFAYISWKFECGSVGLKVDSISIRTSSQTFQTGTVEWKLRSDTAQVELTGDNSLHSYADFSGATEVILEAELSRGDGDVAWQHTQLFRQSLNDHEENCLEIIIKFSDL
As to the kind of experiment: RNase B deglycosylation assay with recombinant human NGLY1. The class given is biochemical. An excerpt: The computational homology model of human NGLY1 core domain was generated and used for studying interactions between NGLY1 and novel small molecules that are designed to covalently modified and inactivate the catalytic site of NGLY1. (FIG. 15A) The most favorable binding pose of Z-VAD-fmk, a short peptide with NGLY1 and caspase inhibitory activity, in the human NGLY1 homology model superimposed to the conformation of Z-VAD-fmk bound to mouse NGLY1 in a co-crystalized structure. […] RNase B (g): glycosylated RNase B. RNase B (dg): deglycosylated RNase B. Veh: vehicle (DMSO) treatment. M: molecular weight marker. Lower panel: the deglycosylation of NFE2L1 altered by the treatment of 20 μM Z-VAD-fmk and 200 μM NM-350 in bortezomib-treated HEK293T cells. The cells were pretreated with vehicle (DMSO), Z-VAD-fmk and NM-350 for 24 hours and subsequently subjected to concomitant treatment with 10 μM bortezomib for an additional 16 hours. Cell lysates reacted with and without 500 units of PNGase F for 2 hours were analyzed using Western blotting. Top arrowhead in lanes 2 and 3: fully glycosylated NFE2L1. Top arrowhead in lane 1: partially glycosylated NFE2L1. Bottom arrowhead: deglycosylated and truncated NFE2L1. […] The cell viability curve of combinatorial treatment was plotted according to the doses of dacarbazine used in the treatment. […] The cell viability curve of combinatorial treatment was plotted according to the doses of bortezomib used in the treatment. All the data of cell viability tests were presented as mean±standard deviation (n=3).
FLAG-tagged human NGLY1 was overexpressed by the transduction of the pLenti expression vector that carries a Myc-DDK-tagged-human NGLY1 open reading frame in HEK293T cells. Anti-FLAG magnetic beads (OriGene Technologies, Rockville, MD) were used to react with the lysate of HEK293T cells overnight at 4° C. in the presence of pan-protease inhibitors to purify the FLAG-tagged NGLY1. The magnetic beads were thoroughly washed using 0.5% Tween 20 in PBS for three times to minimize non-specific binding. The enrichment of recombinant human NGLY1 was checked by Western blotting of NGLY1 in the pull-down fraction. To perform RNase B deglycosylation assays, purified human NGLY1 on an equal volume of magnetic beads was incubated with PBS containing each of the indicated small molecules and control vehicle (DMSO) at 37° C. for 2 hours. The magnetic beads were then collected and resuspended in PBS containing 0.05% NP-40. Each magnetic bead suspension was mixed with 1 ug RNase B (Millipore Sigma, St. Louis, MO) that was pre-denatured using 5 mM DTT in the presence of 8M urea at 42° C. for 1 hour followed by the treatment of 25 mM iodoacetamide at room temperature for 1 hour and buffer exchange into PBS using Zeba 7K MWCO spin columns (Thermo Fisher Scientific, Carlsbad, CA). The mixtures of magnetic bead suspension and denatured RNase B were left at 37° C. for 16 hours. The proteins in each mixture were resolved by SDS-PAGE and visualized using SYPRO Ruby gel stain (Thermo Fisher Scientific, Carlsbad, CA).

For data set [3], the system named is NFE2L1. As to the kind of experiment: Deglycosylation of NFE2L1 in bortezomib-treated HEK293T cells (Western blotting). The class given is cell-based. The following applies: 24 hours pretreatment then 10 μM bortezomib 16 hours. An excerpt: The computational homology model of human NGLY1 core domain was generated and used for studying interactions between NGLY1 and novel small molecules that are designed to covalently modified and inactivate the catalytic site of NGLY1. (FIG. 15A) The most favorable binding pose of Z-VAD-fmk, a short peptide with NGLY1 and caspase inhibitory activity, in the human NGLY1 homology model superimposed to the conformation of Z-VAD-fmk bound to mouse NGLY1 in a co-crystalized structure. […] RNase B (g): glycosylated RNase B. RNase B (dg): deglycosylated RNase B. Veh: vehicle (DMSO) treatment. M: molecular weight marker. Lower panel: the deglycosylation of NFE2L1 altered by the treatment of 20 μM Z-VAD-fmk and 200 μM NM-350 in bortezomib-treated HEK293T cells. The cells were pretreated with vehicle (DMSO), Z-VAD-fmk and NM-350 for 24 hours and subsequently subjected to concomitant treatment with 10 μM bortezomib for an additional 16 hours. Cell lysates reacted with and without 500 units of PNGase F for 2 hours were analyzed using Western blotting. Top arrowhead in lanes 2 and 3: fully glycosylated NFE2L1. Top arrowhead in lane 1: partially glycosylated NFE2L1. Bottom arrowhead: deglycosylated and truncated NFE2L1. […] The cell viability curve of combinatorial treatment was plotted according to the doses of dacarbazine used in the treatment. […]

Data set [4] deals with MALME3M cells. The class given is cell-based. The following applies: 20 μM, 72-hour treatment. The protocol:
as §1, §2, §3

Data set [5] concerns UACC257 cells. As to the kind of experiment: Cell viability test (MTT) in UACC257 cells. Type of data set: cell-based, human. The following applies: 20 μM, 72-hour treatment. The protocol:
as §1, §2, §3

Data set [6] has as its system U-251MG glioblastoma cells. As to the kind of experiment: Cell morphology of U-251MG cells with NGLY1 knockdown. The class given is cell-based.
Data set [7] concerns NGLY1. As to the kind of experiment: NGLY1 expression in stable clones of melanoma cells (immunoblotting). Type of data set: cell-based, human. The following applies: stable clones of MALME3M, UACC257 and SK-MEL-2 cells, 48-hour treatment of dox. An excerpt: These NGLY1-targeting shRNA sequences and a scrambled (non-targeting) shRNA sequence were cloned into doxycycline (dox)-inducible, polycistronic green fluorescence protein (GFP)-shRNA expression constructs (a pZIP inducible lentiviral vector, TransOMIC). Stable clones have been generated with the shRNA expression constructs in multiple human melanoma cell lines, including MALME3M, UACC257, SK-MEL-2, and COLO829 melanoma cells. […] Similar knockdown effects were found in the stable clones of other melanoma cells with this particular NGLY1 shRNA sequence. […] Similar to human normal fibroblasts, normal melanocytes (FIG. 5D) and keratinocytes appeared to well tolerate NGLY1 knockdown and show no sign of increased cell death. In addition, SK-MEL-2, MALME3M cells that express inducible NGLY1 shRNA presented significant apoptosis, compared to their scrambled RNA-expressing counterparts. The expression of exogenous human NGLY1 in melanoma cells attenuated NGLY1-targeting shRNA-induced apoptosis (FIG. 5E).
The knockdown of NGLY1 expression in melanoma cells was achieved by the transduction of pZIP-TRE3GS lentiviral expression vectors that carry two independent shRNA sequences (Below; TransOMIC Technologies, Huntsville, AL). […] The expression of the shRNA sequences and an open reading frame of the ZsGreen reporter is driven by the TRE3GS doxycycline-inducible promoter. […]
On the technique in general: Immunoblotting shows a protein as a band on a membrane.

The subject of data set [8] is HepG2 liver cancer cells. As to the kind of experiment: Cell morphology of HepG2 cells with NGLY1 knockdown. Type of data set: cell-based.
Where [9] appears, read: 2-hour reaction with human NGLY1.

For `C=CC(=O)N[C@@H](CC(=O)N[C@@H]1O[C@H](COC(C)=O)[C@@H](OC(C)=O)[C@H](OC(C)=O)[C@H]1NC(C)=O)C(=O)NCCC` [NM-322, (2R,3S,4R,5R,6R)-5-acetamido-2-(acetoxymethyl)-6-((S)-3-acrylamido-4-oxo-4-(propylamino)butanamido)tetrahydro-2H-pyran-3,4-diyl diacetate], in data set [1] (in combination with dacarbazine), the “suppression of cell viability in combination” value is listed as “synergistic effect”. Besides, the “NGLY1 activity in the deglycosylation of denatured RNase B” value (“NGLY1 activity in the deglycosylation” below) in data set [2] (setting [9]) is “suppressed its activity”.

As to `C=CS(=O)(=O)N[C@@H](CC(=O)N[C@@H]1O[C@H](COC(C)=O)[C@@H](OC(C)=O)[C@H](OC(C)=O)[C@H]1NC(C)=O)C(=O)NCCC` [NM-348, (2R,3S,4R,5R,6R)-5-Acetamido-2-(acetoxymethyl)-6-((S)-4-oxo-4-(propylamino)-3-(vinylsulfonamido)butanamido)tetrahydro-2H-pyran-3,4-diyl diacetate], the “NGLY1 activity in the deglycosylation” value in data set [2] (setting [9]) is listed as “suppressed its activity”.

On to `CCCNC(=O)[C@H](CC(=O)N[C@@H]1O[C@H](COC(C)=O)[C@@H](OC(C)=O)[C@H](OC(C)=O)[C@H]1NC(C)=O)NC(=O)CCl` [NM-350, (2R,3S,4R,5R,6R)-5-Acetamido-2-(acetoxymethyl)-6-((S)-3-(2-chloroacetamido)-4-oxo-4-(propylamino)butanamido)tetrahydro-2H-pyran-3,4-diyl diacetate], for which the “suppression of cell viability in combination” value in data set [1] (in combination with bortezomib) is reported as “synergistically suppressed the viability”. Also, in data set [3] (200 μM), the “deglycosylation of NFE2L1” value was “clear retention of N-glycans on NFE2L1”. Further, in data set [2] (setting [9]), the “NGLY1 activity in the deglycosylation” value is “suppressed its activity”.

As to `CCCNC(=O)[C@H](CC(=O)N[C@@H]1O[C@H](COC(C)=O)[C@@H](OC(C)=O)[C@H](OC(C)=O)[C@H]1NC(C)=O)NC(=O)/C=C/CN(C)C` [NM-354, (2R,3S,4R,5R,6R)-5-Acetamido-2-(acetoxymethyl)-6-((S)-3-((E)-4-(dimethylamino)but-2-enamido)-4-oxo-4-(propylamino)butanamido)tetrahydro-2H-pyran-3,4-diyl diacetate], in data set [2] (setting [9]), the “NGLY1 activity in the deglycosylation” value is reported as “suppressed its activity”.

`Cc1ccc(S(=O)(=O)/C=C/C(=O)N[C@@H](CCc2ccccc2)C(=O)NCCC(C)C)cc1` [WRR139, reference compound]: in data set [2] (2-hour reaction, 5 μM), the “NGLY1 activity in the deglycosylation” value is given as “suppressed its activity”.

On to `COC(=O)C[C@H](NC(=O)[C@H](C)NC(=O)[C@@H](NC(=O)OCc1ccccc1)C(C)C)C(=O)CF` [Z-VAD-fmk, reference compound] (Cbz-Val-Ala-Asp(OMe)-CH2F), for which the “deglycosylation of NFE2L1” value in data set [3] (20 μM) was “altered”. For the same molecule, the “NGLY1 activity in the deglycosylation” value in data set [2] (2-hour reaction, 20 μM) is “suppressed its activity”.

Regarding `N.N.[Cl][Pt][Cl]` [cisplatin], the “growth and cell death” value in data set [4] and in data set [5] was “moderate growth inhibition without increase of cell death” in each case.

B1: NGLY1-shRNA647: NGLY1-targeting shRNA sequence (SEQ ID NO: 6), dox-inducible lentiviral vector (nucleic acid)
DNA: AAAGCAUUACUUCGAGACACUAUAGUGAAGCCACAGAUGUAUAGUGUCUCGAAGUAAUGCUUCU
As for B1, the cell morphology result in data set [6] and in data set [8] was “morphology of apoptosis” in each case. For the same molecule, in data set [7], the “expression of NGLY1” value was “largely suppressed”.
